Reference: ChEMBL document CHEMBL5528025, “Design, synthesis and biological evaluation of carbamate derivatives incorporating multifunctional carrier scaffolds as pseudo-irreversible cholinesterase inhibitors for the treatment of Alzheimer's disease” (Eur J Med Chem, 2024)
The source made the active and inactive calls. No cut-off for these calls is given here.

Legend:
[1] = tested on: PC-12; assay: Neuroprotective activity against H2O2-induced rat PC-12 cells assessed as protection against H2O2-induced apoptosis by measuring live cells at 10 uM pretreated for 1 hr followed by H2O2 addition and measured after 24 hrs by Annexin V-FITC/PI staining based flow cytometry analysis (reference value: 63.2%); format: functional; settings: time 25 hrs
[2] = Acute toxicity in ICR mouse assessed as histopathological change in liver at 100 to 500 mg/kg, ip measured after 14 days by H and E staining based analysis; format: organism-based; settings: in vivo, 336 h, dose 100-500 mg/kg, time 14 day
[3] = tested on: Mus musculus; assay: Antialzheimer activity in amyloid beta (1 to 42 residues) induced ICR mouse model assessed as reduction in nerve damage by measuring increase in live neurons in hippocampal CA1 region at 5 to 20 mg/kg, ip administered daily by nissl staining based fluorescence microscopy; format: functional, organism-based; settings: dose 5-20 mg/kg
[4] = Acute toxicity in ICR mouse assessed as abnormal dietary patterns at 100 to 500 mg/kg, ip measured after 14 days; format: organism-based; settings: in vivo, 336 h, dose 100-500 mg/kg, time 14 day
[5] = Hepatotoxicity in IG dosed ICR mouse measured after 48 hrs; format: toxicity, organism-based; settings: in vivo, po
[6] = Acute toxicity in ICR mouse assessed as histopathological change in spleen at 100 to 500 mg/kg, ip measured after 14 days by H and E staining based analysis; format: organism-based; settings: in vivo, 336 h, dose 100-500 mg/kg, time 14 day
[7] = tested on: Mus musculus; assay: Antialzheimer activity in amyloid beta (1 to 42 residues) induced ICR mouse model assessed as increase in step through latency at 5 to 20 mg/kg, ip administered daily and measured on day 18 and 19 by passive avoidance test; format: functional, organism-based; settings: dose 5-20 mg/kg, time 18-19 day
[8] = target: T1, Acetylcholinesterase (Homo sapiens, UniProt P22303); assay: Pseudo-irreversible inhibition of human erythrocyte AChE at 4 times IC50 preincubated for 20 mins followed by dialysis and measured after 12 hrs; format: cell-based
T1 sequence (P22303 whole entry): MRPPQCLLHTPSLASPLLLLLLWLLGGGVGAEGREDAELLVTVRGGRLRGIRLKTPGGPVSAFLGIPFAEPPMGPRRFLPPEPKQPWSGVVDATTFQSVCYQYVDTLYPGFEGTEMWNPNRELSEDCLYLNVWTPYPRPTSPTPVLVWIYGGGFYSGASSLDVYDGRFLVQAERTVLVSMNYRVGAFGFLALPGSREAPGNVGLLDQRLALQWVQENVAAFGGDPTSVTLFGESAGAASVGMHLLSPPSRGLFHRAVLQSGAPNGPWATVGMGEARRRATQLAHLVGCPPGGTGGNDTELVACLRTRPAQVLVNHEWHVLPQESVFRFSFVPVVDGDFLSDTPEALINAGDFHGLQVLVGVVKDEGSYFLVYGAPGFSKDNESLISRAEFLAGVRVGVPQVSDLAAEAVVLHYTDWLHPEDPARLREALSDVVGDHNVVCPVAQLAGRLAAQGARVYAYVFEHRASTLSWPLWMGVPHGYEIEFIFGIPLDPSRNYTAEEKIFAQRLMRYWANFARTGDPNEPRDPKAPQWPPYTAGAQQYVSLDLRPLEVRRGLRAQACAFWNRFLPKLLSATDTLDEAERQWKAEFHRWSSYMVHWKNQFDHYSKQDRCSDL

[9] = tested on: PC-12; assay: Inhibition of H2O2 induced ROS production in rat PC-12 cells assessed as reduction in intracellular ROS level at 10 uM pretreated for 1 hr followed by H2O2 stimulation and measured after 24 hrs by confocal microscopic analysis; format: functional, cell-based; settings: time 25.0 hrs
[10] = tested on: Mus musculus; assay: Antialzheimer activity in amyloid beta (1 to 42 residues) induced ICR mouse model assessed as reduction in learning deficits by measuring increase in duration of time spent within target quadrant at 5 to 20 mg/kg, ip administered daily and measured after 13 to 17 days by morris water maze test; format: functional, organism-based; settings: dose 5-20 mg/kg, time 13-17 day
[11] = target: T2, Cholinesterase (Homo sapiens, UniProt P06276)
T2 sequence (P06276 whole entry): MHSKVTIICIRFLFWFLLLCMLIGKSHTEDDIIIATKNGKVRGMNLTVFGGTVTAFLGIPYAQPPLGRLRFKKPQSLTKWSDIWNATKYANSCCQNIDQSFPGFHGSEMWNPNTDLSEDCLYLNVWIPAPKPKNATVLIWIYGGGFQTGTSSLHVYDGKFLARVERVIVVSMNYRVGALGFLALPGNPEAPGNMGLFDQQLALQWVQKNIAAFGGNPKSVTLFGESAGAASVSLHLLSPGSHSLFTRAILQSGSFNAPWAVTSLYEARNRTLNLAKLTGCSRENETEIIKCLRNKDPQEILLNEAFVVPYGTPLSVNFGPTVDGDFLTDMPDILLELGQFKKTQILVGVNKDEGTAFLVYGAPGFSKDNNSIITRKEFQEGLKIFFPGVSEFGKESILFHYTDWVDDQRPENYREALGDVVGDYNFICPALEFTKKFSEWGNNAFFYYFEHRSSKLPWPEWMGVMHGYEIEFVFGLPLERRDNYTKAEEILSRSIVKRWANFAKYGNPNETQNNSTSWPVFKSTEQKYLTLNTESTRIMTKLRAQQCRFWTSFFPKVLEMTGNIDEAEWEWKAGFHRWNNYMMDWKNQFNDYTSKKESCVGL
Description: Inhibition of human serum BuChE using butyrylthiocholine iodide as substrate incubated for 10 mins followed by substrate addition and measured after 10 mins by DTNB reagent based Ellman's method

[12] = Acute toxicity in ICR mouse assessed as histopathological change in brain at 100 to 500 mg/kg, ip measured after 14 days by H and E staining based analysis; format: organism-based; settings: in vivo, 336 h, dose 100-500 mg/kg, time 14 day
[13] = tested on: Mus musculus; assay: Antialzheimer activity in amyloid beta (1 to 42 residues) induced ICR mouse model assessed as reduction in learning deficits by measuring increase in trajectory within target quadrant at 5 to 20 mg/kg, ip administered daily and measured after 13 to 17 days by morris water maze test; format: functional, organism-based; settings: dose 5-20 mg/kg, time 13-17 day
[14] = tested on: BV-2; assay: Cytotoxicity against mouse BV-2 cells assessed as reduction in cell viability at 5 uM incubated for 24 hrs by CCK-8 assay; format: toxicity, cell-based; settings: bv-2, 24 h
[15] = tested on: Mus musculus; assay: Antialzheimer activity in amyloid beta (1 to 42 residues) induced ICR mouse model assessed as reduction in learning deficits by measuring reduction in path search distance at 5 to 20 mg/kg, ip administered daily and measured on day 4 by morris water maze test; format: functional, organism-based; settings: dose 5-20 mg/kg, time 4.0 day
[16] = tested on: Mus musculus; assay: Antialzheimer activity in ip dosed amyloid beta (1 to 42 residues) induced ICR mouse model assessed as reduction in learning deficits by measuring increase in alternation performance administered daily and measured on day 12 by Y-maze test; format: functional, organism-based; settings: dose 5-20 mg/kg, time 12.0 day
[17] = tested on: Mus musculus; assay: In vivo inhibition of AChE in scopolamine treated ICR mouse assessed as reduction in AChE level in brain at 5 to 20 mg/kg, ip preadministered with scopolamine for 7 days followed by compound administration and measured after 7 days; format: functional, organism-based; settings: dose 5-20 mg/kg, time 7.0 day
[18] = tested on: Mus musculus; assay: Antialzheimer activity in amyloid beta (1 to 42 residues) induced ICR mouse model assessed as reduction in learning deficits by measuring increase in distance traveled within target quadrant at 5 to 20 mg/kg, ip administered daily and measured after 13 to 17 days by morris water maze test; format: functional, organism-based; settings: dose 5-20 mg/kg, time 13-17 day
[19] = Acute toxicity in ICR mouse assessed as reduction in body weight at 100 to 500 mg/kg, ip measured after 2 days; format: organism-based; settings: in vivo, 48 h, dose 100-500 mg/kg, time 2 day
[20] = Acute toxicity in ICR mouse assessed as histopathological change in heart at 100 to 500 mg/kg, ip measured after 14 days by H and E staining based analysis; format: organism-based; settings: in vivo, 336 h, dose 100-500 mg/kg, time 14 day
[21] = tested on: Mus musculus; assay: In vivo inhibition of BuChE in scopolamine treated ICR mouse assessed as reduction in BuChE level in brain at 20 mg/kg, ip preadministered with scopolamine for 7 days followed by compound administration and measured after 7 days; format: functional, organism-based; settings: time 7.0 day
[22] = Cytotoxicity against rat PC-12 cells assessed as cell viability at 10 uM incubated for 24 hrs by CCK-8 assay relative to control; format: toxicity, cell-based; settings: read-out: Activity
[23] = tested on: Mus musculus; assay: Antialzheimer activity in amyloid beta (1 to 42 residues) induced ICR mouse model assessed as reduction in nerve damage by measuring increase in live neurons in hippocampal CA3 region at 20 mg/kg, ip administered daily by nissl staining based fluorescence microscopy; format: functional, organism-based
[24] = tested on: PC-12; assay: Neuroprotective activity against H2O2-induced rat PC-12 cells assessed as protection against H2O2-induced apoptosis by measuring late apoptotic cells at 10 uM pretreated for 1 hr followed by H2O2 addition and measured after 24 hrs by Annexin V-FITC/PI staining based flow cytometry analysis (reference value: 7.97%); format: functional; settings: time 25 hrs
[25] = Acute toxicity in ICR mouse assessed as aberrant behavior at 100 to 500 mg/kg, ip measured after 14 days; format: organism-based; settings: in vivo, 336 h, dose 100-500 mg/kg, time 14 day
[26] = target: T2, Cholinesterase; assay: Pseudo-irreversible inhibition of human serum BuChE using butyrylthiocholine iodide as substrate at 4 times IC50 preincubated for 20 mins followed by dialysis and measured after 12 hrs by DTNB reagent based Ellman's method
[27] = tested on: Mus musculus; assay: Antialzheimer activity in amyloid beta (1 to 42 residues) induced ICR mouse model assessed as reduction in learning deficits by measuring reduction in latency at 5 to 20 mg/kg, ip administered daily and measured for 3 days by morris water maze test; format: functional, organism-based; settings: dose 5-20 mg/kg, time 3.0 day
[28] = tested on: BV-2; assay: Antineuroinflammatory activity in LPS-induced mouse BV-2 cells assessed as increase in IL-4 level at 1.25 to 5 uM incubated for 24 hrs by ELISA; format: functional, cell-based; settings: dose 1.25-5 µM
[29] = target: T1, Acetylcholinesterase
Description: Inhibition of human erythrocyte AChE incubated for 10 mins

**Q.** Which results are given for `O=C(NCCCCCCNc1c2c(nc3cc(F)ccc13)CCCC2)Oc1ccc(-c2cc3cccnc3[nH]2)cc1`?
**A.** Activity [1]: 81.3%; Activity [2]: Non-Toxic; Activity [3]: Active; Activity [4]: Non-Toxic; LD50 at 48 h [5]: > 500 mg/kg; Activity [6]: Non-Toxic; Activity [7]: Active; inhibition [8]: Active; inhibition [9]: Active; Activity [10]: Active; IC50 [11]: 48 nM; Activity [12]: Non-Toxic; Activity [13]: Active; Activity [14]: Non-Toxic; Activity [15]: Active; Activity [16]: Dose-Dependent Effect; inhibition [17]: Active; Activity [18]: Active; Activity [19]: Toxic; Activity [20]: Non-Toxic; inhibition [21]: Active; viability at 24 h, 10 µM [22]: > 90%; Activity [23]: Active; Activity [24]: 5.8%; Activity [25]: Non-Toxic; inhibition [26]: Active; Activity [27]: Active; Activity [28]: Active; IC50 [29]: 30.4 nM
